Drawing on patent publication US4663329A, “Thienopyridinone derivatives and anti-bacterial compositions containing them” (Sanofi, priority 1984, dated 1987), this text covers MIC for three compounds.

Type in all cases: cell-based
The subject of test [1] is Staphylococcus aureus 53154 IP. Kind of test: In vitro antibacterial activity, MIC, Staphylococcus aureus 53154 IP. The following applies: Staphylococcus aureus 53154 IP; 37° C., pH=7.4, inoculum 10^4; read-out: MIC. On the procedure:
(§1) Tests carried out in vitro in accordance with the experimental procedure described hereunder have provided evidence of the antibacterial activity in question.
(§2) For this purpose, the M.I.C. were determined i.e. the minimal inhibiting concentrations of the compound under study acting on the growth of the bacteria at 37° C.
(§3) The serial dilutions method was used utilizing a MUELLER HINTON gelose medium at pH=7.4 and a bacterial inoculum of 10^4 units forming colonies. This inoculum was applied to the gelose by means of a multiple sowing device.
(§4) A scale of concentrations ranging from 100 to 0.05 μg/ml of compound to be studied was used starting from mother solutions titrating 1000 μg/ml, all the subsequent dilutions being effected in distilled water.

The test system of test [2] is Streptococcus faecalis 5855 IP. Briefly: In vitro antibacterial activity, MIC, Streptococcus faecalis 5855 IP. Conditions: Enterococcus faecalis, 37° C., pH=7.4, inoculum 10^4, read-out: MIC. On the procedure: as §1, §2, §3, §4
For test [3], the system named is Escherichia coli 54127 IP. Kind of test: In vitro antibacterial activity, MIC, Escherichia coli 54127 IP. The following applies: Escherichia coli, 54127IP. Here is the method:
as §1, §2, §3, §4

The subject of test [4] is Escherichia coli SOL RL 90. Briefly: In vitro antibacterial activity, MIC, Escherichia coli SOL RL 90. The following applies: SOLRL90. Here is the method: as §1, §2, §3, §4
The test system of test [5] is Citrobacter freundii GN 346. Kind of test: In vitro antibacterial activity, MIC, Citrobacter freundii GN 346. The following applies: GN346. Here is the method: as §1, §2, §3, §4
Test [6] has as its system Proteus vulgaris RL 99 bis. Kind of test: In vitro antibacterial activity, MIC, Proteus vulgaris RL 99 bis. Conditions: Proteus vulgaris, RL99BIS. Here is the method:
as §1, §2, §3, §4

The test system of test [7] is Proteus mirabilis ATCC 21100. Briefly: In vitro antibacterial activity, MIC, Proteus mirabilis ATCC 21100. The following applies: ATCC21100. Here is the method:
as §1, §2, §3, §4

For the next test, the system named is Proteus morganii 1510. Kind of test: In vitro antibacterial activity, MIC, Proteus morganii 1510. The following applies: Morganella morganii, 1510. Here is the method:
as §1, §2, §3, §4

Test [8] has as its system Providencia stuartii 5158. Kind of test: In vitro antibacterial activity, MIC, Providencia stuartii 5158. On the procedure: as §1, §2, §3, §4
In test [9] the test system is Serratia liquefaciens 376. Kind of test: In vitro antibacterial activity, MIC, Serratia liquefaciens 376. The following applies: 37° C., pH=7.4, inoculum 10^4, read-out: MIC. Here is the method:
as §1, §2, §3, §4

For test [10], the system named is Klebsiella pneumoniae ATCC 10031. Kind of test: In vitro antibacterial activity, MIC, Klebsiella pneumoniae ATCC 10031. Conditions: ATCC10031. Here is the method: as §1, §2, §3, §4
For test [11], the system named is Klebsiella pneumoniae R 30. Kind of test: In vitro antibacterial activity, MIC, Klebsiella pneumoniae R 30. Conditions: R30. Here is the method: as §1, §2, §3, §4
The subject of test [12] is Enterobacter cloacae P 99. Briefly: In vitro antibacterial activity, MIC, Enterobacter cloacae P 99. The following applies: Enterobacter cloacae, P99. On the procedure:
as §1, §2, §3, §4

In test [13] the test system is Enterobacter hafniae RO 46. Kind of test: In vitro antibacterial activity, MIC, Enterobacter hafniae RO 46. The following applies: Hafnia alvei, RO46. On the procedure: as §1, §2, §3, §4
The next test relates to Shigella sonnei R 018. Kind of test: In vitro antibacterial activity, MIC, Shigella sonnei R 018. Conditions: R018, 37° C., pH=7.4, inoculum 10^4. Here is the method: as §1, §2, §3, §4
Test [14] deals with Salmonella typhimurium A 222 IP. Briefly: In vitro antibacterial activity, MIC, Salmonella typhimurium A 222 IP. The following applies: Salmonella enterica. On the procedure: as §1, §2, §3, §4
In test [15] the test system is Salmonella typhi ATCC 6539. Briefly: In vitro antibacterial activity, MIC, Salmonella typhi ATCC 6539. The following applies: Salmonella enterica. Here is the method:
as §1, §2, §3, §4

For test [16], the system named is Bordetella bronchiseptica ATCC 4617. Briefly: In vitro antibacterial activity, MIC, Bordetella bronchiseptica ATCC 4617. The following applies: ATCC4617, 37° C., pH=7.4, inoculum 10^4, read-out: MIC. Here is the method:
as §1, §2, §3, §4

Test [17] relates to Pseudomonas aeruginosa 8203. Briefly: In vitro antibacterial activity, MIC, Pseudomonas aeruginosa 8203. The following applies: 37° C., pH=7.4, inoculum 10^4, read-out: MIC. On the procedure: as §1, §2, §3, §4
The test system of test [18] is Acinetobacter calcoaceticus C 1733. Kind of test: In vitro antibacterial activity, MIC, Acinetobacter calcoaceticus C 1733. Conditions: C1733, 37° C., pH=7.4, inoculum 10^4, read-out: MIC. On the procedure:
as §1, §2, §3, §4

Setting [19] is: Escherichia coli SOL RL 90, 37° C., pH=7.4, inoculum 10^4, read-out: MIC.
Where [20] appears, read: Citrobacter freundii GN 346, 37° C., pH=7.4, inoculum 10^4, read-out: MIC.
Where [21] appears, read: Proteus mirabilis ATCC 21100, 37° C., pH=7.4, inoculum 10^4, read-out: MIC.
[22] abbreviates: Providencia stuartii 5158, 37° C., pH=7.4, inoculum 10^4, read-out: MIC.
Setting [23] is: Klebsiella pneumoniae ATCC 10031, 37° C., pH=7.4, inoculum 10^4, read-out: MIC.
Setting [24] is: Klebsiella pneumoniae R 30, 37° C., pH=7.4, inoculum 10^4, read-out: MIC.
Setting [25] is: Salmonella typhimurium A 222 IP, 37° C., pH=7.4, inoculum 10^4, read-out: MIC.

The structures appear in SMILES notation. Values after ≈ are worked out from the molar mass of the structure shown. Like-named read-outs stand apart in the source and are kept apart here. Where only a bound is given, the exact number is not on record here.

As for `CCn1cc(C(=O)O)c(=O)c2cc([N+](=O)[O-])sc21` [Compound Y, 4,7-dihydro-7-ethyl-2-nitro-4-oxo-thieno[2,3-b]pyridine-5-carboxylic acid, reference compound], the MIC is greater than 100 µg/mL in [1]; greater than 100 µg/mL in [2]; 3.12 µg/mL (≈ 11.6 µM) in [3]; 6.25 µg/mL (≈ 23.3 µM) in test [4] (setting [19]); 12.5 µg/mL (≈ 46.6 µM) in test [5] (setting [20]); 3.12 µg/mL (≈ 11.6 µM) in test [6]. The MIC in [7] (setting [21]) is 12.5 µg/mL (≈ 46.6 µM); against Proteus morganii 1510, 3.12 µg/mL (≈ 11.6 µM); in [8] (setting [22]) it was 12.5 µg/mL (≈ 46.6 µM); in [9], greater than 100 µg/mL; in test [10] (setting [23]) it was 50 µg/mL (≈ 186 µM); in test [11] (setting [24]) it was 25 µg/mL (≈ 93.2 µM). The MIC in test [12] was 50 µg/mL (≈ 186 µM); in test [13], 3.12 µg/mL (≈ 11.6 µM); in the test with Shigella sonnei R 018, 3.12 µg/mL (≈ 11.6 µM); in [14] (setting [25]), 6.25 µg/mL (≈ 23.3 µM); in [15], 25 µg/mL (≈ 93.2 µM); in test [16] it was greater than 100 µg/mL. In addition, the MIC in [17] and in [18] was greater than 100 µg/mL in each case.
With `CCn1cc(C(=O)O)c(=O)c2cc(C=NO)sc21` [Compound A, 4,7-Dihydro-7-ethyl-2-hydroxyiminomethyl-4-oxo-thieno[2,3-b]pyridine-5-carboxylic acid], the MIC in [1] is 25 µg/mL (≈ 93.9 µM); in test [2], greater than 100 µg/mL; in test [3], 3.12 µg/mL (≈ 11.7 µM); in test [4] (Escherichia coli), 6.25 µg/mL (≈ 23.5 µM); in test [5] (Citrobacter freundii), 6.25 µg/mL (≈ 23.5 µM); in [6], 1.56 µg/mL (≈ 5.86 µM). Also, the MIC in test [7] (Proteus mirabilis) is 1.56 µg/mL (≈ 5.86 µM); against Proteus morganii 1510, 1.56 µg/mL (≈ 5.86 µM); in test [8] (Providencia stuartii, 5158), 6.25 µg/mL (≈ 23.5 µM); in test [9], 100 µg/mL (≈ 376 µM); in [10] (Klebsiella pneumoniae), 1.56 µg/mL (≈ 5.86 µM); in [11] (Klebsiella pneumoniae) it was 6.25 µg/mL (≈ 23.5 µM). In addition, the minimum inhibitory concentration (MIC) is 6.25 µg/mL (≈ 23.5 µM) in test [12]; 1.56 µg/mL (≈ 5.86 µM) in [13]; 1.56 µg/mL (≈ 5.86 µM) against Shigella sonnei R 018; 6.25 µg/mL (≈ 23.5 µM) in test [14] (TYPHIMURIUM); 6.25 µg/mL (≈ 23.5 µM) in test [15]; greater than 100 µg/mL in [16]. Moreover, the values for the MIC in test [17] and in test [18] were 50 µg/mL (≈ 188 µM) and greater than 100 µg/mL, respectively.
As for `CCn1cc(C(=O)O)c(=O)c2cc(C=Nc3ccccc3)sc21` [Compound J, 4,7-Dihydro-7-ethyl-2-N-phenyl-iminomethyl-4-oxo-thieno[2,3-b]pyridine-5-carboxylic acid], the MIC in test [1] is greater than 100 µg/mL; in test [2], greater than 100 µg/mL; in test [3], 3.12 µg/mL (≈ 9.56 µM); in test [4] (setting [19]) it was 6.25 µg/mL (≈ 19.1 µM); in test [5] (setting [20]), 12.5 µg/mL (≈ 38.3 µM); in test [6] it was 3.12 µg/mL (≈ 9.56 µM). Besides, the MIC in [7] (setting [21]) is 12.5 µg/mL (≈ 38.3 µM); in the test on Proteus morganii 1510 it was 3.12 µg/mL (≈ 9.56 µM); in test [8] (setting [22]), 12.5 µg/mL (≈ 38.3 µM); in test [9], greater than 100 µg/mL; in test [10] (setting [23]), 50 µg/mL (≈ 153 µM); in [11] (setting [24]) it was 25 µg/mL (≈ 76.6 µM). The MIC in test [12] was 50 µg/mL (≈ 153 µM); in [13], 3.12 µg/mL (≈ 9.56 µM); against Shigella sonnei R 018 it was 3.12 µg/mL (≈ 9.56 µM); in [14] (setting [25]) it was 6.25 µg/mL (≈ 19.1 µM); in test [15], 25 µg/mL (≈ 76.6 µM); in test [16], greater than 100 µg/mL. For the same compound, the MIC in test [17] and in [18] was greater than 100 µg/mL each time.

A word on the MIC: it is the least concentration at which growth counts as inhibited.
